Reference: patent publication US20210392882A1, “METHODS AND COMPOSITIONS FOR IMPROVED INSECT REPELLENCY” (Board of Trustees of Michigan State University, priority 2020, published 2021)

Assays:
[1] = tested on: sst-1 sensilla (sst-1A and sst-1B neurons); assay: Single sensillum recording (SSR) of antennal sst-1 sensilla; type: cell-based, Aedes aegypti; settings: wild-type ROCK; pyrethrum at 10^−2
Procedure: Single sensilla recording was conducted as described in Liu et al. J Insect Physiol 59, 1169-1177 (2013). Female mosquitoes 4 days after eclosion were anaesthetized (2-3 min on ice) and mounted on a microscope slide (76×26 mm). An antenna was fixed using a double-sided tape to a cover slip resting on a small ball of dental wax to facilitate manipulation. The cover slip was placed at an appropriate angle to the mosquito head. Once mounted, the specimen was placed under a microscope (Nikon SMA645, Japan) and the antenna viewed at a high magnification (1000×). Two tungsten microelectrodes were sharpened in 10% KNO2 at 2-10 V. The reference electrode, which was connected to ground, was inserted into the compound eye of the mosquito and the other was connected to the preamplifier (10×, Syntech, Kirchzarten, Germany) and inserted into the shaft of an olfactory sensillum to complete the electrical circuit to extracellularly record olfactory receptor neuron potentials (Den Otter et al., Journal of Insect Physiology 26, 465-472 (1980)). Controlled manipulation of the electrodes was performed using a micromanipulator (Burleigh PCS-6000, CA). The preamplifier was connected to an analog-to-digital signal converter (IDAC-4, Syntech, Germany), which in turn was connected to a computer for signal recording and visualization. The activity of co-located olfactory receptor neurons in each sensillum was assessed based on the differences in spike amplitude. The large spike amplitude was designated as cell A and the olfactory receptor neuron with the small spike amplitude was designated cell B (Ghaninia et al. Eur J Neurosci 26, 1611-1623 (2007)). Signals were recorded for 10 seconds starting 1 second before stimulation, and the action potentials were counted off-line over a 500-ms period before and after stimulation. The spontaneous firing rates observed in the preceding 500 milliseconds (ms) were subtracted from the total spike rates observed during the 500-ms stimulation, and counts were recorded in units of spikes/second.
Eighteen compounds besides pyrethrum from different chemical classes were selected for functional classification of olfactory sensilla with various morphological shapes (Extended Data FIG. 2). Each compound was diluted in dimethyl sulfoxide (DMSO) to a stock solution with a concentration of 100 μg/μl. Subsequently, a series of 10-fold dilutions were made from each of the stock solutions for each compound tested. For each dilution, a 10 μl portion was dispersed onto a filter paper strip (4×10 mm), which was then inserted into a Pasteur pipette to create the stimulus cartridge. A sample containing the solvent alone served as control. The airflow across the antennae was maintained constant at a 20 ml/second throughout the experiment. Purified and humidified air was delivered to the preparation through a glass tube (10-mm inner diameter) perforated by a small hole 10 cm away from the end of the tube, into which the tip of the Pasteur pipette could be inserted. The stimulus was delivered to the sensilla by inserting the tip of the stimulus cartridge into this hole and diverting a portion of the air stream (0.5 l/min) to flow through the stimulus cartridge for 500 ms using a stimulus controller (Syntech, Germany). The distance between the end of the glass tube and the antennae was ≤1 cm. The number of spikes/second was obtained by averaging the results for each sensillum/compound combination.
To identify which mosquito olfactory receptor neuron(s) responds to pyrethrum, single sensillum recordings (SSR) were performed of Ae. aegypti antennal olfactory sensilla in response to a panel of odorants (FIG. 2C-2L), most of which are plant-derived mosquito repellents, such as pyrethrum, (±)-citronellal, geranyl acetate and (−)-borneol. Three responsive sst sensilla were identified, sst1-3, and six responsive sbt sensilla, sbt1-6, based on their response profiles to the odorants in the panel (FIG. 2B, 2D-2L).

Ae. aegypti mosquitoes = assay: Hand-in-cage spatial repellency assay; type: in vivo, Aedes aegypti
From the text: The hand-in-cage assay employed was similar to the hand-in-glove assay described by Boyle et al. (bioRxiv, 060178 (2016)). The setup for the hand-in-cage assay includes a 30 cm×30 cm×30 cm mosquito cage (BioQuip, Rancho Dominguea, Calif.), with a mounted digital camera and a human hand in a modified glove with a screened window. The digital camera (e-con Systems Inc, San Jose, Calif., model: e-CAM51A) for video recording is mounted on the cage top and connected to a laptop computer. A nitrile rubber glove (Ansell Protective Products, Coshoton, Ohio, part number: 37-155) was cut on the back side of the glove to create a window (6 cm×5 cm) (FIG. 1A). A piece of magnetic frame (slightly larger than the dimension of the window) was glued onto the cut window which was used as a base for stacking more magnetic window frames (FIG. 1A; further explained below). One piece of test compound-treated polyester netting (Shason Textile Inc., part number: WS-B532-111, white; slightly larger than the dimension of the window) was placed on this fixed magnetic frame, which was ˜3.0 mm above the glove. The second piece of the netting was untreated and placed ˜6.0 mm above the treated net using a stack of four magnetic frames. The stacked magnetic frames were further secured with a binder clip. The stacking creates sufficient space between the treated net and the untreated net so that mosquitoes that land on the open window were not able to contact treated net, or to contact and pierce skin of a hand in the glove. The hand makes no contact with the treated net.
The assay was run in a room with humidity between around 50% and temperature between 27° C. to 30° C. Twenty-four hours before an assay, four to nine days-old females (about 40, mated, non-blood fed) were transferred into a mosquito cage. The cage was kept in an incubator where mosquitoes were provided only with water in a cotton ball placed on the top of the cage. Immediately before the assay, one researcher treated pieces of netting with 500 μl test compound dissolved in acetone in a glass Petri dish in an adjacent room. Acetone served a control. After letting acetone evaporate (˜7 min), the researcher assembled and put on a modified glove. In the meantime, a second researcher or a lab assistant transferred the prepared cage from the incubator to a bench in the assay room. Both personnel avoided use of any hand lotions and cosmetic products before an assay and wore white lab coats and gloves during the assay. The hand with the modified glove was introduced into the cage to initiate the assay. Mosquitoes landing on the test window was recorded by the digital camera for five minutes. The number of mosquitoes landing during the second to fifth minutes was counted and recorded. For each cage, solvent (acetone) control was tested first and then followed with a treatment. Data from any cage that gave a low landing number in a control trial were discarded. The time interval of assays between control and treatment was at least 1.5 hours, allowing the mosquitoes to fully recover and residual vapors from experiments to be ventilated out of the room. Percentage repellency was determined for each cage using the following equation:
Percentage repellency=[1−(cumulative number of mosquitoes landed on the window of treatment/cumulative number of mosquitoes landed on the window of solvent treatment)]×100).
The spatial repellency of pyrethrum was examined using a hand-in-cage assay (Ogoma et al. PLoS neglected tropical diseases 11, e0005455 (2017)). In this behavioral assay, mosquitoes were attracted to a human hand in a modified glove (FIG. 1A) with a screened window on the back of the glove. The mosquitoes landed on a piece of control mesh secured on the top of the window. Between the control mesh and the hand is another mesh treated with a test compound, with which mosquitoes cannot make direct contact (FIG. 1A).

CC1(C)C2CCC1(C)C(O)C2 (single isomer, unassigned; (-)) [(−)-borneol]
response of sst-1A neuron [1]: activates | repellency, Orlando vs orco−/− (Ae. aegypti mosquitoes; 10^−2 dilution, FIG. 4I): Orco-mediated | effect of (E)-β-farnesene on repellency of the compound (Ae. aegypti mosquitoes; EBF 4 ppm, P-I 1000 ppm, P-II 1000 ppm, (−)-borneol 100 ppm, ROCK, FIG. 4D): No enhancement
